Results from patent publication US10336761B2, “TGFβ receptor antagonist” (BRISTOL-MYERS SQUIBB COMPANY, priority 2015, dated 2019).

molecular target: HIS-TGFβR1 T204D (Homo sapiens (Human), UniProt P36897, T204D); assay: HTRF probe-displacement assay, HIS-TGFβR1 T204D; format: binding; details: 1 hour at room temperature
Sequence (P36897 34-503 T204D): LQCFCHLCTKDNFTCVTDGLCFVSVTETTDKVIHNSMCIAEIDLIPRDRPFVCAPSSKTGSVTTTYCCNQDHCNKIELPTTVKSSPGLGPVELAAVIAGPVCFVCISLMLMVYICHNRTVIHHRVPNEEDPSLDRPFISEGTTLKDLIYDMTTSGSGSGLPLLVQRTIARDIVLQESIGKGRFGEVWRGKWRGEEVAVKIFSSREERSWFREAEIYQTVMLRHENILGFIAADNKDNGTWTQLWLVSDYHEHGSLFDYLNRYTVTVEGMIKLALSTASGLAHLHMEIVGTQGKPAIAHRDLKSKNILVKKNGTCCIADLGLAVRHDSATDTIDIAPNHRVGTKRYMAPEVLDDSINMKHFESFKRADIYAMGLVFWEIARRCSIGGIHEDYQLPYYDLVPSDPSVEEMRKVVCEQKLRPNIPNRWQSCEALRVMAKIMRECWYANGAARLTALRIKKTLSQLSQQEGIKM

Structure (SMILES) | IC50 [nM]
O=C(NCc1ccccn1)c1cnccc1Nc1nc(-c2cccc(C(F)F)n2)nn2cccc12 [Example 181, 4-({2-[6-(difluoromethyl)pyridin-2-yl]pyrrolo[2,1-f][1,2,4]triazin-4-yl}amino)-N-(pyridin-2-ylmethyl)pyridine-3-carboxamide] | 32
CCOC(=O)CCNC(=O)c1cnccc1Nc1nc(-c2cccc(C(F)F)n2)nn2cccc12 [Example 204, Ethyl 3-{[4-({2-[6-(difluoromethyl)pyridin-2-yl]pyrrolo[2,1-f][1,2,4]triazin-4-yl}amino)pyridin-3-yl]formamido}propanoate] | 53
COCC(=O)Nc1cc(Nc2nc(-c3cccc(C(F)(F)F)n3)nn3cccc23)ccn1 [Example 336, 2-methoxy-N-[4-({2-[6-(trifluoromethyl)pyridin-2-yl]pyrrolo[2,1-f][1,2,4]triazin-4-yl}amino)pyridin-2-yl]acetamide] | 1.6
Fc1cc(Nc2nc(-c3ccccn3)nn3cccc23)ccn1 [Example 55, 2-fluoro-N-[2-(pyridin-2-yl)pyrrolo[2,1-f][1,2,4]triazin-4-yl]pyridin-4-amine] | 69
CC(C)(NCc1ccn2nc(-c3ccccn3)nc(Nc3ccncc3F)c12)c1ccccn1 [Example 301, 3-fluoro-N-[2-(pyridin-2-yl)-5-({[2-(pyridin-2-yl)propan-2-yl]amino}methyl)pyrrolo[2,1-f][1,2,4]triazin-4-yl]pyridin-4-amine] | 0.58
CN1CCN(Cc2ccn3nc(-c4ccc(F)cn4)nc(Nc4ccncc4F)c23)CC1 [Example 234, 3-fluoro-N-[2-(5-fluoropyridin-2-yl)-5-[(4-methylpiperazin-1-yl)methyl]pyrrolo[2,1-f][1,2,4]triazin-4-yl]pyridin-4-amine] | 3
CC(=O)Nc1cc(Nc2nc(-c3ccc(F)cn3)nn3cccc23)c(F)cn1 [Example 323, N-(5-fluoro-4-{[2-(5-fluoropyridin-2-yl)pyrrolo[2,1-f][1,2,4]triazin-4-yl]amino}pyridin-2-yl)acetamide] | 16
COc1cccc(-c2nc(Nc3ccncc3F)c3cc(NC(=O)CNS(C)(=O)=O)cn3n2)n1 [Example 110, N-{4-[(3-fluoropyridin-4-yl)amino]-2-(6-methoxypyridin-2-yl)pyrrolo[2,1-f][1,2,4]triazin-6-yl}-2-methanesulfonamidoacetamide] | 130
Fc1cnccc1Nc1nc(-c2ccccn2)nn2ccc(CNC34CC5CC(CC(C5)C3)C4)c12 [Example 282, N-(5-{[(adamantan-1-yl)amino]methyl}-2-(pyridin-2-yl)pyrrolo[2,1-f][1,2,4]triazin-4-yl)-3-fluoropyridin-4-amine] | 15
CCNc1cc(Nc2nc(-c3ccccn3)nn3ccc(CNCC(C)(C)O)c23)ccn1 [Example 258, 1-{[(4-{[2-(ethylamino)pyridin-4-yl]amino}-2-(pyridin-2-yl)pyrrolo[2,1-f][1,2,4]triazin-5-yl)methyl]amino}-2-methylpropan-2-ol] | 4.5
COC(=O)Nc1cc(Nc2nc(-c3cccc(OC)n3)nn3cccc23)ccn1 [Example 68, Methyl N-(4-{[2-(6-methoxypyridin-2-yl)pyrrolo[2,1-f][1,2,4]triazin-4-yl]amino}pyridin-2-yl)carbamate] | 5
COc1cccc(-c2nc(Nc3ccncc3Cl)c3cccn3n2)n1 [Example 60, 3-chloro-N-[2-(6-methoxypyridin-2-yl)pyrrolo[2,1-f][1,2,4]triazin-4-yl]pyridin-4-amine] | 5.4
Cc1cccc(-c2nc(Nc3ccncc3C(=O)NCCCN3CCCC3)c3cccn3n2)n1 [Example 221, 4-{[2-(6-methylpyridin-2-yl)pyrrolo[2,1-f][1,2,4]triazin-4-yl]amino}-N-[3-(pyrrolidin-1-yl)propyl]pyridine-3-carboxamide] | 4
NC(=O)c1cccc(-c2nc(Nc3ccncc3F)c3cccn3n2)n1 [Example 5, 6-{4-[(3-fluoropyridin-4-yl)amino]pyrrolo[2,1-f][1,2,4]triazin-2-yl}pyridine-2-carboxamide] | 65
Fc1cnccc1Nc1nc(-c2ccnc(C(F)(F)F)n2)nn2cccc12 [Example 100, 3-fluoro-N-{2-[2-(trifluoromethyl)pyrimidin-4-yl]pyrrolo[2,1-f][1,2,4]triazin-4-yl}pyridin-4-amine] | 15
Fc1cnccc1Nc1nc(-c2cscn2)nn2cccc12 [Example 262, 3-fluoro-N-[2-(1,3-thiazol-4-yl)pyrrolo[2,1-f][1,2,4]triazin-4-yl]pyridin-4-amine] | 8.2
NCCCNCc1ccn2nc(-c3ccccn3)nc(Nc3ccncc3F)c12 [Example 286, N-(5-{[(3-aminopropyl)amino]methyl}-2-(pyridin-2-yl)pyrrolo[2,1-f][1,2,4]triazin-4-yl)-3-fluoropyridin-4-amine] | 2.9
Cc1cccc(-c2nc(Nc3ccncc3)c3cc(C(N)=O)cn3n2)n1 [Example 219, 2-(6-methylpyridin-2-yl)-4-[(pyridin-4-yl)amino]pyrrolo[2,1-f][1,2,4]triazine-6-carboxamide] | 10

Structure (SMILES) | IC50 [nM]
COc1cccc(-c2nc(Nc3ccncc3F)c3cc(NC(=O)N4CCOCC4)cn3n2)n1 [Example 105, N-{4-[(3-fluoropyridin-4-yl)amino]-2-(6-methoxypyridin-2-yl)pyrrolo[2,1-f][1,2,4]triazin-6-yl}morpholine-4-carboxamide] | 690
COc1cccc(-c2nc(Nc3ccnc(NCCN4CCC(O)CC4)c3)c3cccn3n2)n1 [Example 132, 1-{2-[(4-{[2-(6-methoxypyridin-2-yl)pyrrolo[2,1-f][1,2,4]triazin-4-yl]amino}pyridin-2-yl)amino]ethyl}piperidin-4-ol] | 700
O[C@H]1CCN(Cc2ccn3nc(-c4cccc(C(F)F)n4)nc(Nc4ccncc4F)c23)C1 [Example 251, (3S)-1-({2-[6-(difluoromethyl)pyridin-2-yl]-4-[(3-fluoropyridin-4-yl)amino]pyrrolo[2,1-f][1,2,4]triazin-5-yl}methyl)pyrrolidin-3-ol] | 0.59
COc1cccc(-c2nc(Nc3ccncc3F)c3c(C(O)CNCCN4CCS(=O)(=O)CC4)ccn3n2)n1 (centres unmarked) [Example 131, 4-{2-[(2-{4-[(3-fluoropyridin-4-yl)amino]-2-(6-methoxypyridin-2-yl)pyrrolo[2,1-f][1,2,4]triazin-5-yl}-2-hydroxyethyl)amino]ethyl}-1,4-thiomorpholine-1,1-dione] | 56
Fc1cnccc1Nc1nc(-c2ccccn2)nn2ccc(CNCC3CCCO3)c12 (centres unmarked) [Example 247, 3-fluoro-N-(5-{[(oxolan-2-ylmethyl)amino]methyl}-2-(pyridin-2-yl)pyrrolo[2,1-f][1,2,4]triazin-4-yl)pyridin-4-amine] | 1
COc1cccc(-c2nc(Nc3ccncc3C(N)=O)c3cccn3n2)n1 [Example 98, 4-{[2-(6-methoxypyridin-2-yl)pyrrolo[2,1-f][1,2,4]triazin-4-yl]amino}pyridine-3-carboxamide] | 9.1
Cc1cncc(-c2nc(Nc3ccncc3F)c3cccn3n2)n1 [Example 71, 3-fluoro-N-[2-(6-methylpyrazin-2-yl)pyrrolo[2,1-f][1,2,4]triazin-4-yl]pyridin-4-amine] | 96
Fc1cnccc1Nc1nc(-c2cccc(OC(F)(F)F)n2)nn2cccc12 [Example 289, 3-fluoro-N-{2-[6-(trifluoromethoxy)pyridin-2-yl]pyrrolo[2,1-f][1,2,4]triazin-4-yl}pyridin-4-amine] | 3
COc1cccc(-c2nc(Nc3ccncc3F)c3cc(CNCC(C)(C)O)cn3n2)n1 [Example 207, 1-[({4-[(3-fluoropyridin-4-yl)amino]-2-(6-methoxypyridin-2-yl)pyrrolo[2,1-f][1,2,4]triazin-6-yl}methyl)amino]-2-methylpropan-2-ol] | 1700
COc1cccc(-c2nc(Nc3ccnc(NCC(C)(C)O)c3)c3cccn3n2)n1 [Example 133, 1-[(4-{[2-(6-methoxypyridin-2-yl)pyrrolo[2,1-f][1,2,4]triazin-4-yl]amino}pyridin-2-yl)amino]-2-methylpropan-2-ol] | 3300
CC(=O)Nc1cc(Nc2nc(-c3cccc(C(F)F)n3)nn3cccc23)c(F)cn1 [Example 225, N-[4-({2-[6-(difluoromethyl)pyridin-2-yl]pyrrolo[2,1-f][1,2,4]triazin-4-yl}amino)-5-fluoropyridin-2-yl]acetamide] | 5.1
O=C(NCCN1CCCCC1)c1cnccc1Nc1nc(-c2ccccn2)nn2cccc12 [Example 144, N-[2-(piperidin-1-yl)ethyl]-4-{[2-(pyridin-2-yl)pyrrolo[2,1-f][1,2,4]triazin-4-yl]amino}pyridine-3-carboxamide] | 25
Clc1cnccc1Nc1nc(-c2ccccn2)nn2cccc12 [Example 54, 3-chloro-N-[2-(pyridin-2-yl)pyrrolo[2,1-f][1,2,4]triazin-4-yl]pyridin-4-amine] | 1.6
COc1cccc(-c2nc(Nc3ccncc3F)c3c(CNCC(C)(C)O)ccn3n2)n1 [Example 118, 1-[({4-[(3-fluoropyridin-4-yl)amino]-2-(6-methoxypyridin-2-yl)pyrrolo[2,1-f][1,2,4]triazin-5-yl}methyl)amino]-2-methylpropan-2-ol] | 9.7
O=C(NCCN1CCS(=O)(=O)CC1)c1cnccc1Nc1nc(-c2cccc(C(F)(F)F)n2)nn2cccc12 [Example 179, N-[2-(1,1-dioxo-1,4-thiomorpholin-4-yl)ethyl]-4-({2-[6-(trifluoromethyl)pyridin-2-yl]pyrrolo[2,1-f][1,2,4]triazin-4-yl}amino)pyridine-3-carboxamide] | 260
O=C(N[C@@H]1CCC[C@@H]1O)c1cnccc1Nc1nc(-c2cccc(C(F)F)n2)nn2cccc12 [Example 198, 4-({2-[6-(difluoromethyl)pyridin-2-yl]pyrrolo[2,1-f][1,2,4]triazin-4-yl}amino)-N-[(1R,2S)-2-hydroxycyclopentyl]pyridine-3-carboxamide] | 140
Cc1cccc(-c2nc(Nc3ccncc3C(=O)NCCCN3CCN(C)CC3)c3cccn3n2)n1 [Example 160, N-[3-(4-methylpiperazin-1-yl)propyl]-4-{[2-(6-methylpyridin-2-yl)pyrrolo[2,1-f][1,2,4]triazin-4-yl]amino}pyridine-3-carboxamide] | 3.5
